Experimental data published in PMC9501633, “Synthesis, Characterisation and Mechanism of Action of Anticancer 3-Fluoroazetidin-2-ones” (Pharmaceuticals, 2022).

Legend:
[1] = test system: HCC-2998; assay: NCI 60 cell line screen, Colon; type: cell-based, human; settings: one dose 10 µM
[2] = test system: DU-145; assay: NCI 60 cell line screen, Prostate; type: cell-based, human; settings: one dose 10 µM
[3] = test system: NCI-H522; assay: NCI 60 cell line screen, NSCLung; type: cell-based, human; settings: one dose 10 µM
[4] = test system: OVCAR-8; assay: NCI 60 cell line screen, Ovarian; type: cell-based, human; settings: one dose 10 µM
[5] = test system: OVCAR-4; assay: NCI 60 cell line screen, Ovarian; type: cell-based, human; settings: one dose 10 µM
[6] = test system: SNB-75; assay: NCI 60 cell line screen, CNS; type: cell-based, human; settings: one dose 10 µM
[7] = test system: MCF-7 human breast cancer cells; assay: AlamarBlue cell viability assay; type: cell-based; settings: Homo sapiens, MCF7, 72 h, MCF-7, 72 h
How it was run: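 Cytotoxicity in MCF-7 cells seeded at 5 × 10^3 per well, treated after 24 h with compounds at 1 μM and 10 μM for 72 h, vehicle 1% ethanol. AlamarBlue (10% v/v) added for 3–5 h at 37 °C; fluorescence ex 530/em 590 nm, expressed as percent viability of vehicle control; IC50 from dose–response curves.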

[8] = test system: NCI/ADR-RES; assay: NCI 60 cell line screen, Ovarian; type: cell-based, human; settings: one dose 10 µM
[9] = test system: UACC-257; assay: NCI 60 cell line screen, Melanoma; type: cell-based, human; settings: one dose 10 µM
[10] = test system: A498; assay: NCI 60 cell line screen, Renal; type: cell-based, human; settings: one dose 10 µM
[11] = test system: M14; assay: NCI 60 cell line screen, Melanoma; type: cell-based, human; settings: one dose 10 µM
[12] = test system: SK-OV-3; assay: NCI 60 cell line screen, Ovarian; type: cell-based, human; settings: one dose 10 µM
[13] = test system: KM12; assay: NCI 60 cell line screen, Colon; type: cell-based, human; settings: one dose 10 µM
[14] = test system: A549/A TCC; assay: NCI 60 cell line screen, NSCLung; type: cell-based, human; settings: one dose 10 µM
[15] = test system: HOP-92; assay: NCI 60 cell line screen, NSCLung; type: cell-based, human; settings: one dose 10 µM
[16] = test system: SK-MEL-5; assay: NCI 60 cell line screen, Melanoma; type: cell-based, human; settings: one dose 10 µM
[17] = test system: EKVX; assay: NCI 60 cell line screen, NSCLung; type: cell-based, human; settings: one dose 10 µM
[18] = test system: OVCAR-3; assay: NCI 60 cell line screen, Ovarian; type: cell-based, human; settings: one dose 10 µM
[19] = test system: SK-MEL-28; assay: NCI 60 cell line screen, Melanoma; type: cell-based, human; settings: one dose 10 µM
[20] = test system: K-562; assay: NCI 60 cell line screen, Leukaemia; type: cell-based, human
[21] = test system: LOX IMVI; assay: NCI 60 cell line screen, Melanoma; type: cell-based, human; settings: one dose 10 µM
[22] = test system: ACHN; assay: NCI 60 cell line screen, Renal; type: cell-based, human; settings: one dose 10 µM
[23] = test system: NCI-H322M; assay: NCI 60 cell line screen, NSCLung; type: cell-based, human; settings: one dose 10 µM
[24] = test system: HS 578T; assay: NCI 60 cell line screen, Breast; type: cell-based, human; settings: one dose 10 µM
[25] = test system: MDA-MB-231/ATCC; assay: NCI 60 cell line screen, Breast; type: cell-based, human; settings: one dose 10 µM
[26] = test system: OVCAR-5; assay: NCI 60 cell line screen, Ovarian; type: cell-based, human; settings: one dose 10 µM

Compound: COc1ccc(C2N(c3cc(OC)c(OC)c(OC)c3)C(=O)C2(F)F)cc1F (stereo not drawn) [Compound 43, 3,3-Difluoro-4-(3-fluoro-4-methoxyphenyl)-1-(3,4,5-trimethoxyphenyl)azetidin-2-one]
- inhibition at 10 µM ([1]; Homo sapiens): 15.8%
- Growth % [1]: 84.2%
- inhibition at 10 µM ([2]; Homo sapiens): 74.8%
- Growth % [2]: 25.22%
- inhibition at 10 µM ([3]; Homo sapiens): 82.5%
- Growth % [3]: 17.54%
- inhibition at 10 µM ([4]; Homo sapiens): 55.9%
- Growth % [4]: 44.07%
- inhibition at 10 µM ([5]; Homo sapiens): 41.7%
- Growth % [5]: 58.34%
- inhibition at 10 µM ([6]; Homo sapiens): 35.3%
- Growth % [6]: 64.74%
- IC50 [7]: 1650 nM
- inhibition at 10 µM ([8]; Homo sapiens): 67.1%
- Growth % [8]: 32.94%
- inhibition at 10 µM ([9]; Homo sapiens): 50%
- Growth % [9]: 50.01%
- inhibition at 10 µM ([10]; Homo sapiens): 2.19%
- Growth % [10]: 97.81%
- inhibition at 10 µM ([11]; Homo sapiens): 75.8%
- Growth % [11]: 24.24%
- inhibition at 10 µM ([12]; Homo sapiens): 24.5%
- Growth % [12]: 75.49%
- inhibition at 10 µM ([13]; Homo sapiens): 77.1%
- Growth % [13]: 22.9%
- inhibition at 10 µM ([14]; Homo sapiens): 51.4%
- Growth % [14]: 48.65%
- inhibition at 10 µM ([15]; Homo sapiens): 39.2%
- Growth % [15]: 60.84%
- inhibition at 10 µM ([16]; Homo sapiens): 91.9%
- Growth % [16]: 8.08%
- inhibition at 10 µM ([17]; Homo sapiens): 22.3%
- Growth % [17]: 77.7%
- inhibition at 10 µM ([18]; Homo sapiens): 88.4%
- Growth % [18]: 11.64%
- inhibition at 10 µM ([19]; Homo sapiens): 22.8%
- Growth % [19]: 77.22%
- inhibition at 10 µM ([20]; Homo sapiens, K562, one dose 10 µM): 89.5%
- Growth % ([20]; one dose 10 µM): 10.5%
- inhibition at 10 µM ([21]; Homo sapiens): 72.9%
- Growth % [21]: 27.06%
- inhibition at 10 µM ([22]; Homo sapiens): 39.2%
- Growth % [22]: 60.82%
- inhibition at 10 µM ([23]; Homo sapiens): 8.79%
- Growth % [23]: 91.21%
- inhibition at 10 µM ([24]; Homo sapiens): 78.1%
- Growth % [24]: 21.93%
- inhibition at 10 µM ([25]; Homo sapiens): 46%
- Growth % [25]: 54.02%
- inhibition at 10 µM ([26]; Homo sapiens): 21.3%
- Growth % [26]: 78.72%
